Values of other authors as cited in patent US5741892A, “Pentapeptides as antitumor agents” (Basf Aktiengesellschaft, priority 1996, dated 1998).

What was measured:
[1] = tested on: four different human lymphoma cell lines
[2] = synthetic Dolastatin 10
[3] = tested on: P388 lymphocytic leukemia (PS system) cell line

Substance | inhibition of growth of lymphoma cell lines [1] | inhibition of tubulin polymerization (tubulin) | solubility in aqueous systems [2] | inhibition of cell growth [3]
Dolastatin 10 | effectively inhibit | effectively inhibit | poor solubility in aqueous systems | –
Dolastatin 15 | effectively inhibit | effectively inhibit | – | inhibits the growth
